For 81 compounds, AC35 results are on record in PubChem BioAssay AID720589 (Broad Institute, 2013).

Values joined by “and” are separate entries in the source; they are usually repeats but may differ in a detail not shown here. Equal entries are not always repeated.

The test has as its system HepG2 viability, ATP luminescence (CellTiter-Glo), 72 h. Description: ATP-based viability loss in HepG2 cells – cell-based, CellTiter-Glo luminescence, cherry-pick, set 3, cytotoxicity control, dose response (AID 720589).
As to `O=C(c1nnsc1S(=O)c1ccc(Cl)cc1)N1CCOCC1` (stereo unspecified), the AC35 is 7.87 µM.

`O=c1cc(CN2CCN(Cc3ccccc3)CC2)c2ccc(O)c(O)c2o1`: the AC35 was 10.3 µM.

`COc1cc(/C=N/NC(=O)c2csc3c2CCCC3)cc(OC)c1O`: the AC35 was 20 µM.

For the compound `O=C(Nc1cccc(S(=O)(=O)N2CCCC2)c1)c1ccc(Cl)nc1`, the AC35 is 16 µM.

`O=c1ccc2[n+]([O-])c3ccc(O)cc3oc-2c1`: the AC35 was 5.65 µM.

On to `CCCCCCCN(c1ccccc1)[C@@H]1C[C@H]2CCCC(=O)N3CC[C@@H](C1)[C@@H]23`, for which the AC35 was 17.3 µM.

Regarding `COC(=O)C[C@@H]1CC[C@@H]2[C@@H](COc3ccc(NC(=O)Nc4ccc(C#N)cc4)cc3C(=O)N2C)O1`, the AC35 is 14.4 µM.

For the compound `Cc1c(CCOC(=O)CC23CC4CC(CC(C)(C4)C2)C3)sc[n+]1CC(=O)c1ccccc1`, the AC35 was 18.4 µM.

Take `C(=Cc1nc2ccccc2o1)c1ccc2c(c1)OCO2`: the AC35 was 19.5 µM.

For the compound `Cc1cc2c(C(C)C)c(O)c(O)c(C=O)c2c(O)c1-c1c(C)cc2c(C(C)C)c(O)c(O)c(C=O)c2c1O`, the AC35 was 13.7 µM.

`CCOc1cc(/C=N/Nc2cc(C)nc(-n3nc(C)cc3C)n2)ccc1O`: the AC35 is 1.14 µM.

As for `Nc1ccc(-c2cc3ccccc3c(=O)o2)cc1`, the AC35 was 0.05 µM.

As for `O=C(Nc1ccc2c(c1)OCO2)N1C[C@@H]2N[C@H](C1)C2c1ccc(C=Cc2ccccc2)cc1` (stereo partly specified), the AC35 was 5.42 µM.

As for `COc1ccc(S(=O)(=O)Nc2ccc3c(c2)C(=O)N([C@H](C)CO)C[C@@H](C)[C@@H](CN(C)Cc2ccc(C(=O)Nc4ccccc4N)cc2)O3)cc1`, the AC35 was 10.8 µM.

On to `O=C(Nc1ccccc1F)N1CCCCN2[C@H](CO)[C@H](c3ccc(/C=C/c4ccccc4)cc3)[C@H]2C1`, for which the AC35 was 4.41 µM.

On to `C[C@H]1CN([C@@H](C)CO)C(=O)c2cc(NC(=O)C3CCCCC3)ccc2O[C@H]1CN(C)Cc1ccc(C(=O)Nc2ccccc2N)cc1`, for which the AC35 is 1.47 µM.

As for `CN(C[C@H]1N[C@@H](CO)[C@@H]1c1ccc(C2=CCCC2)cc1)C(=O)c1ccc(F)cc1`, the AC35 was 4.57 µM.

For `CC1(C)N=C(N)N=C(N)N1c1ccc(OCCCOc2ccccc2)c(Cl)c1`, the AC35 is 9.77 µM.

With `COc1cc2c(cc1NC(=O)CN(C)Cc1ccc(OC)c(OC)c1)oc1ccccc12`, the AC35 was 15.6 µM.

In the case of `CCN(Cc1ccccc1)c1ccc(/C=N/N=C(N)N)cc1`, the AC35 was 4.18 µM.

As for `Nc1nc(=S)c2ncn([C@@H]3O[C@H](CO)[C@@H](O)[C@H]3O)c2[nH]1`, the AC35 is 2.56 µM.

As to `CCOC(=O)[C@]12Cc3ccc(C)cc3[C@H]1N(C1CCCCC1)C(=O)c1ccccc12`, the AC35 is 3.95 µM.

Turning to `COC1C(O)C(C)OC(OC2CCC3(C)C(CCC4C3C(O)CC3(C)C(C5=CC(=O)OC5)CCC43O)C2)C1O` (stereo unspecified), the AC35 was 0.204 µM.

For the compound `C[C@H](O)C#Cc1ccc2c(c1)O[C@@H](CN(C)Cc1ccc(-c3ccccc3)cc1)[C@H](C)CN([C@@H](C)CO)S2(=O)=O`, the AC35 was 3.54 µM and 6.95 µM.

For `NC1=CC(=O)C(=O)c2cccnc21`, the AC35 was 13.7 µM.

With `Cc1ccc(S(=O)(=O)Nc2ccc3c(c2)C(=O)N([C@@H](C)CO)C[C@@H](C)[C@H](CN(C)Cc2ccc(C(F)(F)F)cc2)OCCCC[C@H](C)O3)cc1`, the AC35 was 13.3 µM.

As to `Nc1nc(N)c2cc(Sc3ccc4ccccc4c3)ccc2n1`, the AC35 is 3.74 µM.

`CO[C@H]1CN(C)C(=O)c2ccc(NC(=O)c3ccc(-c4ccccc4)cc3)cc2OC[C@H](C)NC[C@H]1C`: the AC35 was 6.36 µM.

Turning to `COC(=O)C1=C(C)N(Cc2ccccc2C(F)(F)F)C(=NCc2ccc(OC)cc2)NC1c1ccc(C(F)(F)F)cc1` (stereo unspecified), the AC35 was 11.1 µM.

In the case of `C[C@@H]1CN([C@@H](C)CO)C(=O)c2cccc(NS(=O)(=O)c3ccc(Cl)cc3)c2O[C@@H]1CN(C)Cc1ccc(C(=O)Nc2ccccc2N)cc1`, the AC35 was 2.38 µM.

As to `CC(C)c1oc(=O)cc2c1[C@@H](O)[C@H]1OC(=O)[C@@]3(C)CC[C@@H](O)[C@@]2(C)C13` (stereo partly specified), the AC35 is 19.7 µM.

Take `COc1ccc(-c2cc(CNc3nc(NC(C)C)nc4cc(-c5ccccc5)sc34)on2)cc1`: the AC35 was 11 µM.

Turning to `CC1(C(=O)NCc2ccco2)Cc2c(-c3cccc(C(N)=O)c3)ccnc2O1` (stereo unspecified), the AC35 is 14.5 µM.

`CCc1nc(N)nc(N)c1-c1ccc(Cl)cc1`: the AC35 is 6.43 µM.

As to `O=C(NC(c1ccc(F)cc1)c1ccc2ccccc2n1)C1CCN(Cc2cccc(C(F)(F)F)c2)CC1` (stereo unspecified), the AC35 was 20 µM.

Consider `O=C(CCc1ccccc1)NC(c1cccs1)c1cc(Cl)c2cccnc2c1O` (stereo unspecified), for which the AC35 is 7.07 µM.

With `Cc1ccc(S(=O)(=O)Nc2ccc3c(c2)C(=O)N([C@H](C)CO)C[C@@H](C)[C@@H](CN(C)Cc2ccc(C(=O)Nc4ccccc4N)cc2)O3)cc1`, the AC35 is 1.28 µM.

Turning to `Cc1[nH][nH]c(=O)c1C(c1c(C)[nH][nH]c1=O)c1cn(Cc2ccc(Cl)c(Cl)c2)c2ccccc12`, the AC35 is 13.5 µM.

In the case of `Nc1cc2c(cc1Br)[nH]c(=O)c1ccccc12`, the AC35 was 19.2 µM.

With `CNC[C@H](CC1CCCCC1)NC[C@H](CO)NCCc1cccc(C(F)(F)F)c1`, the AC35 is 7.57 µM.

Regarding `COc1cc2c(cc1OC)C(C)N(C(=O)c1cc(Cl)nc(Cl)c1)CC2` (stereo unspecified), the AC35 is 12.3 µM.

For `C[C@H]1CN([C@@H](C)CO)C(=O)c2cccc(NC(=O)CCCCCC(=O)Nc3ccccc3N)c2O[C@@H]1CN(C)Cc1ccc2c(c1)OCO2`, the AC35 is 10.5 µM.

On to `COc1ccc(C(CCNCc2ccc(OC(C)C)cc2)C(C)C)cc1` (stereo unspecified), for which the AC35 was 9.44 µM.

In the case of `C[C@H](CO)N1C[C@H](C)[C@H](CN(C)Cc2ccc(C(=O)Nc3ccccc3N)cc2)Oc2ccc(NC(=O)C3CC3)cc2CC1=O`, the AC35 is 0.74 µM.

For `O=C(C1CC1)N1C[C@@H]2N[C@H](C1)C2c1ccc(/C=C/c2ccccc2)cc1` (stereo partly specified), the AC35 is 10.7 µM.

With `CCN1C/C(=C/c2ccc(N3CCOCC3)cc2)C(=O)/C(=C/c2ccc(N3CCOCC3)cc2)C1`, the AC35 was 10.5 µM.

On to `C[C@@H]1CN([C@@H](C)CO)C(=O)c2cc(NC(=O)c3ccccc3)ccc2O[C@@H](C)CCCCO[C@H]1CN(C)C(=O)Nc1cccc2ccccc12`, for which the AC35 is 0.927 µM.

`CC(=NNc1cc(C)c2ccccc2n1)c1ccccn1`: the AC35 is 2.66 µM.

As for `CC(C)=CCC/C(C)=C/CN1C(=O)N(c2ccc(F)cc2)[C@H]2C[C@@H](c3ccccc3)[C@@H](C)[C@@H](C(=O)N3CCOCC3)C[C@H]21`, the AC35 is 3.74 µM.

For the compound `C[C@@H]1CCCCO[C@H](CN(C)Cc2ccc(C(F)(F)F)cc2)[C@H](C)CN([C@H](C)CO)C(=O)c2cc(NC(=O)CCCN(C)C)ccc2O1`, the AC35 is 9.15 µM.

As to `COc1ccc(NC(=O)N2CCCCN3[C@@H](CO)[C@H](c4ccc(C5=CCCCC5)cc4)[C@@H]3C2)cc1`, the AC35 was 10.9 µM.

For the compound `C[C@H](CO)N1C[C@H](C)[C@@H](CN(C)Cc2ccc(Oc3ccccc3)cc2)Oc2ccc(NS(=O)(=O)c3ccc(Cl)cc3)cc2CC1=O`, the AC35 was 10.3 µM.

As for `COc1ccccc1NC(=O)N1CCCCN2[C@H](CO)[C@H](c3ccc(-c4cccc(C)c4)cc3)[C@H]2C1`, the AC35 is 12.5 µM.

As to `C[C@H]1CN([C@@H](C)CO)S(=O)(=O)c2ccc(C#CC(C)(C)O)cc2O[C@@H]1CN(C)Cc1ccc(-c2ccccc2)cc1`, the AC35 is 0.689 µM.

With `Nc1nc(N)c(-c2cccc(C(F)(F)F)c2)c(Cc2cccc(C(F)(F)F)c2)n1`, the AC35 was 4.53 µM.

Turning to `Cc1cc(C)cc(N2C(=O)NC(=O)/C(=C\C=C\c3ccco3)C2=O)c1`, the AC35 is 7.27 µM.

For `CC(=NNc1ccc2ccccc2n1)c1ccccn1`, the AC35 is 1.53 µM.

`O=c1ccc2ccccc2c2ccccc12`: the AC35 is 15.5 µM.

For `COc1ccc([Si](C)(C)[C@H]2[C@H](CCO)O[C@@]3(C(=O)N(c4ccccc4)c4ccccc43)[C@@H]2C)cc1`, the AC35 is 10.5 µM.

As to `CC12CCC(O)CC1CCC1C2CCC2(C)C(C3=CC(=O)OC3)CCC12O` (stereo unspecified), the AC35 was 1.17 µM.

Take `c1ccc(Nc2nnc(-c3ccc4c(c3)OCO4)o2)cc1`: the AC35 was 14.3 µM.

In the case of `C[C@]12CC[C@H](O)C[C@H]1CC[C@@H]1[C@@H]2C[C@@H](O)[C@]2(C)[C@@H](C3=CC(=O)OC3)CC[C@]12O`, the AC35 was 0.373 µM.

On to `COc1cccc(-c2cc(NC=O)c3ncc(-c4ccc(C(C)=O)cc4)n3c2)c1`, for which the AC35 is 15.5 µM.

For `CC(=O)OC1CC2(O)C3CCC4CC(O)CCC4(C)C3CCC2(C)C1C1=CC(=O)OC1` (stereo unspecified), the AC35 is 0.602 µM.

`C[C@H]1CN([C@@H](C)CO)C(=O)c2cc(N(C)C)ccc2O[C@@H]1CN(C)Cc1ccc(C(=O)Nc2ccccc2N)cc1`: the AC35 is 0.975 µM.

`Nc1ccc(Cn2ccc3c4c(N)nc(N)nc4ccc32)cc1`: the AC35 was 0.137 µM.

For the compound `COc1ccc(NC(=S)N=Nc2c(O)[nH]c3ccccc23)cc1`, the AC35 was 15.8 µM.

For `N#C[C@H]1[C@H](c2ccc(C#Cc3ccccc3F)cc2)[C@@H](CO)N1C(=O)C1CCCCC1`, the AC35 is 12.9 µM.

On to `C=C1C(=O)OC2C1CCC(C)C1(O)C=CC(=O)C21C` (stereo unspecified), for which the AC35 was 16.4 µM.

Regarding `C[C@]12CC[C@H]3[C@@H](CC[C@]4(O)C[C@@H](O)CC[C@]34C=O)[C@@]1(O)CC[C@@H]2C1=CC(=O)OC1`, the AC35 is 0.93 µM.

Turning to `Cc1cc(C)c2sc(NNC(=O)c3ccc(S(=O)(=O)N4CCc5ccccc5C4)cc3)nc2c1`, the AC35 is 3.76 µM.

Regarding `O=C1NC(=O)N(Cc2ccco2)C(=O)/C1=C/C=C/c1ccco1`, the AC35 was 10.3 µM.

For `Cc1ccc(C(=O)O/N=C(\N)c2ccccn2)cc1`, the AC35 was 13.2 µM.

In the case of `O=C(NC1CCCC1)N1CCCCN2[C@@H](CO)[C@@H](c3ccc(/C=C/c4ccccc4)cc3)[C@@H]2C1`, the AC35 is 9.99 µM.

As for `CC1OC(OC2CC(O)C3(CO)C4C(O)CC5(C)C(C6=CC(=O)OC6)CCC5(O)C4CCC3(O)C2)C(O)C(O)C1O` (stereo unspecified), the AC35 was 0.129 µM.

For `CCCCNC1=CC(=O)C(=O)c2ccccc21`, the AC35 is 7.32 µM.

`CCCCC[C@H](C)N1C[C@H](COCc2ccccc2)Oc2cc(N3CC[C@@H](N(C)C)C3)ccc2S1(=O)=O`: the AC35 is 6.56 µM.

In the case of `C=C1C(=O)OC2C1CCC(C)C1C=CC(=O)C12C` (stereo unspecified), the AC35 is 9.29 µM.

In the case of `O=C1Nc2cc(C(=O)NCCN3CCCCCC3)ccc2S/C1=C\c1ccccc1`, the AC35 was 10.7 µM.

Turning to `O=C(/C=C/c1cc(Br)ccc1O)c1ccco1`, the AC35 was 17.7 µM.

With `CCN(CC)C(=O)CN1C(=O)C(=O)c2ccccc21`, the AC35 is 7.54 µM.
